Columns and labels:
Assay type in all cases: in vivo
[1] = tested on: barnyardgrass (Echinochloa crus-galli); assay: Test G Pre-Emergence Protocol; conditions: Echinochloa crus-galli, pre-emergence, 312 h, evaluated after 13 days; for pest or weed control at 15.625 g/ha: 15.625 g ai/ha; for pest or weed control at 15.625 g/ha / pest or weed control at 250 g/ha: read-out: Barnyardgrass damage rating (100=total damage to plant; 0=no damage to plant); for pest or weed control at 62.5 g/ha: 62.5 g ai/ha, 100=total damage to plant, 0=no damage to plant, read-out: Barnyardgrass damage rating; for pest or weed control at 250 g/ha: 250 g ai/ha
In short: (§1)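 Pre-emergence spray, 15.625/62.5/250 g/ha, vehicle acetone:water 50:50 + 0.5% Tween 20, applied 1 d after sowing. Glasshouse 24/16° C, 14 h light, 65% RH, watered twice daily. Visual damage rating at 13 d, 0–100 scale.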

[2] = tested on: corn (Zea mays); assay: Test G Pre-Emergence Protocol; conditions: Zea mays, pre-emergence, 312 h, evaluated after 13 days; for plant injury at 15.625 g/ha: 15.625 g ai/ha; for plant injury at 15.625 g/ha / plant injury at 250 g/ha: read-out: Corn damage rating (100=total damage to plant; 0=no damage to plant); for plant injury at 62.5 g/ha: 62.5 g ai/ha, 100=total damage to plant, 0=no damage to plant, read-out: Corn damage rating; for plant injury at 250 g/ha: 250 g ai/ha
In short: as §1

[3] = tested on: giant foxtail (Setaria faberi); assay: Test G Pre-Emergence Protocol; conditions: Setaria faberi, pre-emergence, 312 h, evaluated after 13 days; for pest or weed control at 15.625 g/ha: 15.625 g ai/ha; for pest or weed control at 15.625 g/ha / pest or weed control at 250 g/ha: read-out: Foxtail, Giant damage rating (100=total damage to plant; 0=no damage to plant); for pest or weed control at 62.5 g/ha: 62.5 g ai/ha, 100=total damage to plant, 0=no damage to plant, read-out: Foxtail, Giant damage rating; for pest or weed control at 250 g/ha: 250 g ai/ha
In short: as §1

[4] = tested on: ivy-leaved morning glory (Ipomoea hederacea); assay: Test G Pre-Emergence Protocol; conditions: Ipomoea, pre-emergence, 312 h, evaluated after 13 days; for pest or weed control at 15.625 g/ha: 15.625 g ai/ha; for pest or weed control at 15.625 g/ha / pest or weed control at 250 g/ha: read-out: Morningglory, Ivy-leaved damage rating (100=total damage to plant; 0=no damage to plant); for pest or weed control at 250 g/ha: 250 g ai/ha
In short: as §1

[5] = tested on: redroot pigweed (Amaranthus retroflexus); assay: Test G Pre-Emergence Protocol; conditions: Amaranthus retroflexus, pre-emergence, 312 h, evaluated after 13 days; for pest or weed control at 15.625 g/ha: 15.625 g ai/ha; for pest or weed control at 15.625 g/ha / pest or weed control at 250 g/ha: read-out: Pigweed, Redroot damage rating (100=total damage to plant; 0=no damage to plant); for pest or weed control at 62.5 g/ha: 62.5 g ai/ha, 100=total damage to plant, 0=no damage to plant, read-out: Pigweed, Redroot damage rating; for pest or weed control at 250 g/ha: 250 g ai/ha
In short: as §1

[6] = tested on: velvetleaf (Abutilon theophrasti); assay: Test G Pre-Emergence Protocol; conditions: Abutilon theophrasti, pre-emergence, 312 h, evaluated after 13 days; for pest or weed control at 15.625 g/ha: 15.625 g ai/ha; for pest or weed control at 15.625 g/ha / pest or weed control at 250 g/ha: read-out: Velvetleaf damage rating (100=total damage to plant; 0=no damage to plant); for pest or weed control at 62.5 g/ha: 62.5 g ai/ha, 100=total damage to plant, 0=no damage to plant, read-out: Velvetleaf damage rating; for pest or weed control at 250 g/ha: 250 g ai/ha
In short: as §1

[7] = tested on: barnyardgrass (Echinochloa crus-galli); assay: Test G Post-Emergence Protocol; conditions: Echinochloa crus-galli, post-emergence, 312 h, read-out: Barnyardgrass damage rating; for pest or weed control at 15.625 g/ha: 15.625 g ai/ha, evaluated after 13 days (100=total damage to plant; 0=no damage to plant); for pest or weed control at 62.5 g/ha: 62.5 g ai/ha; for pest or weed control at 62.5 g/ha / pest or weed control at 250 g/ha: evaluated after 13 days, 100=total damage to plant, 0=no damage to plant; for pest or weed control at 250 g/ha: 250 g ai/ha
In short: (§2)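 A glasshouse post-emergence test: 8-day-old plants sprayed at 15.625, 62.5 or 250 g/ha, then grown at 24/16 °C day/night with 14 h light and 65% humidity. Damage rated 13 days later, 0–100.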

[8] = tested on: corn (Zea mays); assay: Test G Post-Emergence Protocol; conditions: Zea mays, post-emergence, 312 h, read-out: Corn damage rating; for plant injury at 15.625 g/ha: 15.625 g ai/ha, evaluated after 13 days (100=total damage to plant; 0=no damage to plant); for plant injury at 62.5 g/ha: 62.5 g ai/ha; for plant injury at 62.5 g/ha / plant injury at 250 g/ha: evaluated after 13 days, 100=total damage to plant, 0=no damage to plant; for plant injury at 250 g/ha: 250 g ai/ha
In short: as §2

[9] = tested on: giant foxtail (Setaria faberi); assay: Test G Post-Emergence Protocol; conditions: Setaria faberi, post-emergence, 312 h, read-out: Foxtail, Giant damage rating; for pest or weed control at 15.625 g/ha: 15.625 g ai/ha, evaluated after 13 days (100=total damage to plant; 0=no damage to plant); for pest or weed control at 62.5 g/ha: 62.5 g ai/ha
In short: as §2

[10] = tested on: ivy-leaved morning glory (Ipomoea hederacea); assay: Test G Post-Emergence Protocol; conditions: Ipomoea, post-emergence, 312 h, read-out: Morningglory, Ivy-leaved damage rating; for pest or weed control at 15.625 g/ha: 15.625 g ai/ha, evaluated after 13 days (100=total damage to plant; 0=no damage to plant); for pest or weed control at 62.5 g/ha: 62.5 g ai/ha; for pest or weed control at 62.5 g/ha / pest or weed control at 250 g/ha: evaluated after 13 days, 100=total damage to plant, 0=no damage to plant; for pest or weed control at 250 g/ha: 250 g ai/ha
In short: as §2

[11] = tested on: redroot pigweed (Amaranthus retroflexus); assay: Test G Post-Emergence Protocol; conditions: Amaranthus retroflexus, post-emergence, 312 h, read-out: Pigweed, Redroot damage rating; for pest or weed control at 15.625 g/ha: 15.625 g ai/ha, evaluated after 13 days (100=total damage to plant; 0=no damage to plant); for pest or weed control at 62.5 g/ha: 62.5 g ai/ha; for pest or weed control at 62.5 g/ha / pest or weed control at 250 g/ha: evaluated after 13 days, 100=total damage to plant, 0=no damage to plant; for pest or weed control at 250 g/ha: 250 g ai/ha
In short: as §2

[12] = tested on: velvetleaf (Abutilon theophrasti); assay: Test G Post-Emergence Protocol; conditions: Abutilon theophrasti, post-emergence, 312 h, read-out: Velvetleaf damage rating; for pest or weed control at 15.625 g/ha: 15.625 g ai/ha, evaluated after 13 days (100=total damage to plant; 0=no damage to plant); for pest or weed control at 62.5 g/ha: 62.5 g ai/ha; for pest or weed control at 62.5 g/ha / pest or weed control at 250 g/ha: evaluated after 13 days, 100=total damage to plant, 0=no damage to plant; for pest or weed control at 250 g/ha: 250 g ai/ha
In short: as §2

[13] = evaluated after 13 days, 100=total damage to plant, 0=no damage to plant

Row | SMILES | pest or weed control at 15.625 g/ha [1] [%] | pest or weed control at 62.5 g/ha [1] [%] | pest or weed control at 250 g/ha [1] [%] | plant injury at 15.625 g/ha [2] [%] | plant injury at 62.5 g/ha [2] [%] | plant injury at 250 g/ha [2] [%] | pest or weed control at 15.625 g/ha [3] [%] | pest or weed control at 62.5 g/ha [3] [%] | pest or weed control at 250 g/ha [3] [%] | pest or weed control at 15.625 g/ha [4] [%] | pest or weed control at 250 g/ha [4] [%] | pest or weed control at 15.625 g/ha [5] [%] | pest or weed control at 62.5 g/ha [5] [%] | pest or weed control at 250 g/ha [5] [%] | pest or weed control at 15.625 g/ha [6] [%] | pest or weed control at 62.5 g/ha [6] [%] | pest or weed control at 250 g/ha [6] [%] | pest or weed control at 15.625 g/ha [7] [%] | pest or weed control at 62.5 g/ha [7] [%] | pest or weed control at 250 g/ha [7] [%] | further results
1 | CON1C[C@H](c2ccc(F)c(F)c2)[C@@H](C(=O)Nc2ccc(F)c(F)c2F)C1=O [Compound 1679] | 50 | 80 | 90 | 0 | 0 | 60 | 90 | 90 | 90 | 0 | 10 | 10 | 10 | 30 | 10 | 10 | 60 | 40 | 80 | 90 | plant injury at 15.625 g/ha [8]: 0%; plant injury at 62.5 g/ha [8]: 0%; plant injury at 250 g/ha [8]: 60%; pest or weed control at 15.625 g/ha [9]: 80%; pest or weed control at 62.5 g/ha [9, 13]: 80%; pest or weed control at 250 g/ha ([9]; 250 g ai/ha, evaluated after 13 days, 100=total damage to plant, 0=no damage to plant): 80%; pest or weed control at 15.625 g/ha [10]: 0%; pest or weed control at 62.5 g/ha [10]: 50%; pest or weed control at 250 g/ha [10]: 40%; pest or weed control at 15.625 g/ha [11]: 0%; pest or weed control at 62.5 g/ha [11]: 30%; pest or weed control at 250 g/ha [11]: 50%; pest or weed control at 15.625 g/ha [12]: 0%; pest or weed control at 62.5 g/ha [12]: 20%; pest or weed control at 250 g/ha [12]: 40%
2 | CN1CC(c2cc(C#N)cc(C(F)(F)F)c2)C(C(=O)Nc2cccc(F)c2F)C1=O (stereo not shown) [Compound 1684] | 0 | 0 | 0 | 0 | 0 | 10 | 0 | 0 | 0 | 0 | 0 | 0 | 0 | 10 | 0 | 0 | 0 | 0 | 0 | 0 | pest or weed control at 62.5 g/ha ([4]; 62.5 g ai/ha, 100=total damage to plant, 0=no damage to plant, read-out: Morningglory, Ivy-leaved damage rating): 0%; plant injury at 15.625 g/ha [8]: 0%; plant injury at 62.5 g/ha [8]: 0%; plant injury at 250 g/ha [8]: 0%; pest or weed control at 15.625 g/ha [9]: 0%; pest or weed control at 62.5 g/ha [9, 13]: 0%; pest or weed control at 15.625 g/ha [10]: 0%; pest or weed control at 62.5 g/ha [10]: 0%; pest or weed control at 250 g/ha [10]: 0%; pest or weed control at 15.625 g/ha [11]: 0%; pest or weed control at 62.5 g/ha [11]: 0%; pest or weed control at 250 g/ha [11]: 0%; pest or weed control at 15.625 g/ha [12]: 0%; pest or weed control at 62.5 g/ha [12]: 0%; pest or weed control at 250 g/ha [12]: 0%
